Results published in EPA's ToxRefDB 2.

How the values were obtained:
mouse [1] = details: Carcinogenicity; b6c3f1; Oral; Feed; dose end: 2 year; group: systemic; systemic / in life observation / body weight / body weight
rat [2] = details: Carcinogenicity; fischer; Oral; Feed; dose end: 2 year; group: systemic; systemic / in life observation / body weight / body weight + systemic / pathology microscopic / kidney / hemosiderosis + systemic / …
rat [3] = details: Prenatal developmental toxicity study, wistar, Oral, Gavage/Intubation, dose end: 15 GD
dog = details: Chronic toxicity, beagle, Oral, Feed, dose end: 52 week, group: systemic
rat [4] = details: Subchronic oral toxicity in rodents, wistar, Feed, dose end: 90 day, group: systemic
mouse [5] = details: Carcinogenicity, other, Oral, Feed, dose end: 18 month, group: systemic
rat [6] = details: Combined chronic toxicity/carcinogenicity; wistar; Oral; Diet; dose end: 104 week; group: systemic; systemic / in life observation / body weight / body weight + systemic / in life observation / food consumption / food consumption + systemic…
rabbit = details: Prenatal developmental toxicity study, new zealand white, Oral, Gavage/Intubation, dose end: 28 GD
rat [7] = details: Multigenerational reproductive toxicity study, Wistar, Oral, Feed, dose end: 2 generation
rat [8] = details: Combined chronic toxicity/carcinogenicity, wistar, Oral, Feed, dose end: 2 year, group: systemic
mouse [9] = details: Subchronic oral toxicity in rodents, other, Feed, dose end: 90 day, group: systemic
[10] = group: developmental, systemic / in life observation / body weight / fetal weight
[11] = group: maternal, systemic / in life observation / body weight / body weight + systemic / in life observation / body weight / body weight gain
[12] = systemic / hematology / erythrocyte (rbc) count differential / erythrocyte (rbc) + systemic / hematology / hematocrit (hct) / hematocrit (…
[13] = systemic / clinical chemistry / alkaline phosphatase (alp/alk) / alkaline phosphatase (alp/alk) + systemic / clinical chemistry / urea …
[14] = systemic / pathology microscopic / epididymis / dilatation + systemic / pathology microscopic / epididymis / infiltration cellular + …
[15] = group: developmental, developmental / developmental malformation / bone / hole(s) + developmental / developmental malformation / bone / incomplete ossification + …
[16] = group: maternal, reproductive / reproductive performance / aborted / aborted + systemic / in life observation / body weight / body weight gain + systemic / …
[17] = group: offspring, systemic / in life observation / body weight / offspring (pup) weight gain
[18] = group: parental, systemic / in life observation / body weight / body weight gain
[19] = systemic / in life observation / body weight / body weight + systemic / in life observation / body weight / body weight gain + systemic / …
[20] = systemic / clinical chemistry / cholesterol / cholesterol + systemic / pathology microscopic / liver / hypertrophy + systemic / clinical …

## c1ccc(N=Nc2ccccc2)cc1 [Azobenzene]
Mouse [1]
  LEL: 30 mg/kg/day
  LOAEL: 81.8 mg/kg/day
  NEL: < 30 mg/kg/day
Rat [2]
  LEL: 10 mg/kg/day
  LOAEL: > 20 mg/kg/day
  NEL: < 10 mg/kg/day
  NOAEL: ≥ 20 mg/kg/day

## O=C(Nc1ccccc1)Nc1cnns1 [Thidiazuron]
Rat [3]; [10]
  LEL: 300 mg/kg/day
  LOAEL: 300 mg/kg/day
  NEL: 100 mg/kg/day
  NOAEL: 100 mg/kg/day
Rat [3]; [11]
  LEL: 300 mg/kg/day
  LOAEL: 300 mg/kg/day
  NEL: 100 mg/kg/day
  NOAEL: 100 mg/kg/day
dog; [12]
  LOAEL: 11.8 mg/kg/day
  NOAEL: 3.93 mg/kg/day
dog; systemic / organ weight / spleen / absolute + systemic / organ weight / spleen / relative to body weight
  LEL: 11.1 mg/kg/day
dog; systemic / organ weight / spleen / absolute + systemic / organ weight / spleen / relative to body weight + systemic / hematology / …
  NEL: 4.01 mg/kg/day
Rat [4]; [13]
  LOAEL: 102 mg/kg/day
  NEL: 11.2 mg/kg/day
  NOAEL: 34.5 mg/kg/day
Rat [4]; systemic / clinical chemistry / phosphorus / phosphorus
  LEL: 34.5 mg/kg/day
Mouse [5]; systemic / pathology microscopic / epididymis / dilatation + systemic / pathology microscopic / epididymis / infiltration cellular
  LOAEL: 86.7 mg/kg/day
Mouse [5]; [14]
  LEL: 86.7 mg/kg/day
  NEL: 26.5 mg/kg/day
  NOAEL: 26.5 mg/kg/day
Rat [6]
  LEL: 31.7 mg/kg/day
  LOAEL: > 31.7 mg/kg/day
  NEL: 10.6 mg/kg/day
  NOAEL: ≥ 31.7 mg/kg/day
rabbit; [15]
  LEL: 125 mg/kg/day
  LOAEL: 125 mg/kg/day
  NEL: 25 mg/kg/day
  NOAEL: 25 mg/kg/day
rabbit; [16]
  LEL: 125 mg/kg/day
  LOAEL: 125 mg/kg/day
  NEL: 25 mg/kg/day
  NOAEL: 25 mg/kg/day
Rat [7]; [17]
  LEL: 108 mg/kg/day
  LOAEL: 108 mg/kg/day
  NEL: 35.4 mg/kg/day
  NOAEL: 35.4 mg/kg/day
Rat [7]; [18]
  LEL: 108 mg/kg/day
  LOAEL: 108 mg/kg/day
  NEL: 35.4 mg/kg/day
  NOAEL: 35.4 mg/kg/day
Rat [8]; [19]
  LOAEL: 36.4 mg/kg/day
  NOAEL: 8 mg/kg/day
Rat [8]; systemic / pathology microscopic / kidney / mineralization + systemic / pathology microscopic / kidney / dilatation + systemic / pathology …
  NEL: 105 mg/kg/day
Mouse [9]; systemic / clinical chemistry / cholesterol / cholesterol + systemic / pathology microscopic / liver / hypertrophy
  LOAEL: 171 mg/kg/day
Mouse [9]; [20]
  NEL: 85.2 mg/kg/day
  NOAEL: 85.2 mg/kg/day
Mouse [9]; systemic / clinical chemistry / cholesterol / cholesterol + systemic / pathology microscopic / liver / hypertrophy + systemic / organ weight…
  LEL: 171 mg/kg/day
